For assay [1], the system named is human lymphocytes and granulocytes. Briefly: Overall activity judged from the results of Examples 40 to 42. How it is done:
(§1) Peripheral blood mononuclear cells were isolated from heparinized blood from healthy volunteers by density gradient centrifugation as described by Bain and Pshyk, Transplantation Proc, 4:163-164 (1972). Cell proliferation induced by Concanavalin A was measured in a standard assay such as described in Soderstrom et at., Scand J Immunol, 32:503-516 (1990) using 5% fetal bovine serum in the culture medium. The reaction mixture (final concentrations) consisted of 200 000 cells stimulated with 2.5 μg/ml Concanavalin A and test compounds in a total volume of 0.2 ml. The test compounds were added at the start of the assay, which was run for a total of three days with addition ofradioactive [3H]-thymidine during the last 18 h. Cell bound radioactivity was measured in a liquid scintillation counter.
(§2) Granulocytes were isolated from the heparinized blood from healthy volunteers. The superoxide assay was essentially that of J. M. McCord and I Fridovich (J. Biol. Chem. 244:6049-6055 (1969)) as modified by G Carlin et al. (Pharmacol. Toxicol 65:121-127 (1989)). The reaction mixture contained (final concentrations) 125 μM cytochrome C in Dulbeccos phosphate buffer with Mg and Ca, 10 μM test compound and 400 000 granulocytes treated with 5 μg/ml of cytochalasin B immediately before the experiment. This reaction mixture was preincubated at 37° C. for 10 minutes, whereafter 10 nM N-formyl-L-methionyl-L-leucyl-L-phenylalanine was added to start the reaction, making the final volume 1 ml. After 10 minutes the tubes were centrifuged and the absorbance of the supernatant at 540 and 550 nm was measured. The superoxide production was expressed as the difference in absorbance at these wavelengths.
as §2, with “et at.” for “et al.”, “Ca, 100” for “Ca, 10”, “and 600” for “and 400”, “whereafter 100” for “whereafter 10”

Assay [2] relates to Human Granulocytes. Briefly: FMLP-induced superoxide production of human granulocytes, 100 μM test compound. The class given is cell-based. Conditions: 100 nM FMLP, 600 000 granulocytes. The protocol: Effects of Test Compounds on Superoxide Production of Human Granulocytes at 100 um Concentration
as §2, with “et at.” for “et al.”, “Ca, 100” for “Ca, 10”, “and 600” for “and 400”, “whereafter 100” for “whereafter 10”

For assay [3], the system named is human lymphocytes. As to the kind of experiment: Concanavalin A-induced proliferation of human lymphocytes ([3H]-thymidine). The class given is cell-based. Conditions: Lymphocyte, 72 h, 250 μM test compound, 2.5 μg/ml Concanavalin A, 3 days, 2 experiments. How it is done:
as §1, with “Effect of Compounds on Human Lymphocyte Proliferation Peripheral” for “Peripheral”

Assay [4] relates to Human Granulocytes. As to the kind of experiment: FMLP-induced superoxide production of human granulocytes, 10 μM test compound. The class given is cell-based. The settings on record: 10 nM FMLP, 400 000 granulocytes. The protocol: Effects of Test Compounds on Superoxide Production of Human Granulocytes
as §2

The subject of assay [5] is T-lymphocytes. The settings on record: cited from earlier work.
The conditions of assay [6]: rheumatoid arthritis, ulcerative colitis, ankylosing spondylitis, reactive arthritis, psoriasis; cited from earlier work.

“Also recorded” adds a separate entry of the source.

Results on two molecules are retold here after patent US5403930A, “Substituted salicylic acids” (Pharmacia AB, priority 1991, dated 1995).

By inhibition is commonly meant the relative decrease from the control value, in per cent. As to `Cc1cccnc1NS(=O)(=O)c1ccc(C#Cc2ccc(O)c(C(=O)O)c2)cc1` [Example 2, 2-Hydroxy-5-[[4-[(3-methyl-2-pyridinylamino)-sulfonyl]phenyl]ethynyl]benzoic acid], the Overall activity ranking entry in assay [1] is listed as “most active; also recorded: considered to be the best one”. In addition, at 100 µM the inhibition in assay [2] was 94.1%. Moreover, in assay [3], the inhibition at 250 µM was found to be 99.5%. Further, 10 µM produced 86% inhibition in assay [4].

`O=C(O)c1cc(/N=N/c2ccc(S(=O)(=O)Nc3ccccn3)cc2)ccc1O` [Sulfasalazine, reference compound]: the “Inhibition of activation and proliferation of T-lymphocytes” value in assay [5] is “inhibits activation and proliferation of T-lymphocytes”. In assay [6], the “Clinical effectiveness in autoimmune diseases” value is reported as “clinically effective”. In assay [2], the inhibition at 100 µM came out at 65.4%. Further, the inhibition at 250 µM in assay [3] is 53.7%. In assay [4], 10 µM produced 63.5% inhibition.
